Reference: paper doi:10.1101/2024.08.19.608619, “Discovery of potent SARS-CoV-2 nsp3 macrodomain inhibitors uncovers lack of translation to cellular antiviral response” (bioRxiv, 2024)
“And” between values parts separate entries of the source, which are not always exact repeats. Equal entries are not always repeated. Where two headings read alike, the source gives them in different places.

Legend:
HeLa-ACE2 cells = details: for perc_max_measured: highest measured response of the dose series; for perc_min_measured: lowest measured response of the dose series
CYP = CYP inhibition; type: in vitro ADME; details: In vitro CYP inhibition pooled; for potency: potency class in words
Excerpt: Supplement media-1.zip/CYP_Inhibition.csv, table | column: ic50; potency

V1a (h) = target: T1, V1a (h) (Homo sapiens, UniProt P37288); assay: In vitro CEREP profiling, V1a (h) (agonist radioligand); type: binding; details: test compound concentration 10 uM; for inhibition at 10 µM: read-out: perc_inhibition, % inhibition of the binding of a ligand specific for each target
T1 construct: purchased Eurofins Cerep (SafetyScreen44), recognised from the panel format
T1 sequence (P37288 whole entry): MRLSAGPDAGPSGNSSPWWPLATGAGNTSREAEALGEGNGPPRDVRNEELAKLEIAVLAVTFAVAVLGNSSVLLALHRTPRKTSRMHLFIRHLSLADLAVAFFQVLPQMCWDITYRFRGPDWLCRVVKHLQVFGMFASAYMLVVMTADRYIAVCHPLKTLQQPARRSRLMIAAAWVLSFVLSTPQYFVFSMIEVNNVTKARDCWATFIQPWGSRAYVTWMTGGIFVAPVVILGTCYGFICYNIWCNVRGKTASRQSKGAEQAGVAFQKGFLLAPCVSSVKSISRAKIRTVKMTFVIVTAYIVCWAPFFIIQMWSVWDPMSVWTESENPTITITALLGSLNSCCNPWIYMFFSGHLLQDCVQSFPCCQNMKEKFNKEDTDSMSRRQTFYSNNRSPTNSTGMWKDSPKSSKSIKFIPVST
Excerpt: (§1) Supplement media-1.zip/Safety_Panel_Profile.csv, table | column: perc_inhibition

5-HT3 (h) = target: T2, 5-HT3 (h) (Homo sapiens, UniProt P46098); assay: In vitro CEREP profiling, 5-HT3 (h) (antagonist radioligand); type: binding; details: test compound concentration 10 uM; for inhibition at 10 µM: read-out: perc_inhibition, % inhibition of the binding of a ligand specific for each target
T2 construct: purchased Eurofins Cerep (SafetyScreen44), recognised from the panel format
T2 sequence (P46098 24-478): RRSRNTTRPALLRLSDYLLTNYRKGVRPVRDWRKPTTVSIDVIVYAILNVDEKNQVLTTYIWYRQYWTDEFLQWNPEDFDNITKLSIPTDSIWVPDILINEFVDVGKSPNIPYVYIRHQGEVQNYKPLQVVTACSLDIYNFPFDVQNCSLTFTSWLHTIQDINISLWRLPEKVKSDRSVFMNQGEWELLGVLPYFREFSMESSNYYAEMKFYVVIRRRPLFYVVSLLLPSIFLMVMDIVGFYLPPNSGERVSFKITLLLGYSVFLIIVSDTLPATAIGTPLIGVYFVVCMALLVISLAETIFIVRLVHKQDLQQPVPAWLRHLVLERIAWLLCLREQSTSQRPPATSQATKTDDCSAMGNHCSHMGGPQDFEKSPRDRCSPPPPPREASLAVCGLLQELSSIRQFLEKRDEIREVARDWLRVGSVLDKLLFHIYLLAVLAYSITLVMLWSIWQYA
Excerpt: as §1

5-HT transporter (h) = target: T3, 5-HT transporter (h) (Homo sapiens, UniProt P31645); assay: In vitro CEREP profiling, 5-HT transporter (h) (antagonist radioligand); details: test compound concentration 10 uM
T3 construct: purchased Eurofins Cerep (SafetyScreen44), recognised from the panel format
T3 sequence (P31645 whole entry): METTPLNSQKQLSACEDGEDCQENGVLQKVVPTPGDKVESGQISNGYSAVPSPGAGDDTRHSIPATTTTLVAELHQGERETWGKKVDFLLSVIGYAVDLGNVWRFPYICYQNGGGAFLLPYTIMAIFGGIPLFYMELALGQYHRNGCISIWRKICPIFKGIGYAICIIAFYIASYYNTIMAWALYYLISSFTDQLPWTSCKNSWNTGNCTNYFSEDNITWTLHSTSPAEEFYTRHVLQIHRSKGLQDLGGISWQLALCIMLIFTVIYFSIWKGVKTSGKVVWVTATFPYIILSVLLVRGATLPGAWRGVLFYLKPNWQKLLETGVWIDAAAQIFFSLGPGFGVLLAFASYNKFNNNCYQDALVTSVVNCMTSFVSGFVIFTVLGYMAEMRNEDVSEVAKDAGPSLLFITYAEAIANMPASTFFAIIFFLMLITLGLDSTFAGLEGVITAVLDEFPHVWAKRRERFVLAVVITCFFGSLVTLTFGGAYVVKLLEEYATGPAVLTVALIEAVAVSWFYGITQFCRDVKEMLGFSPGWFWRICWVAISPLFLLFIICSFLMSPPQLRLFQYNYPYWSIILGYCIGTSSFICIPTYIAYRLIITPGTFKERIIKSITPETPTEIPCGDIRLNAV
Excerpt: as §1

CCK1 (CCKA) (h) = target: T4, CCK1 (CCKA) (h) (Homo sapiens, UniProt P32238); assay: In vitro CEREP profiling, CCK1 (CCKA) (h) (agonist radioligand); type: binding; details: test compound 10 uM; for inhibition at 10 µM: read-out: perc_inhibition (% inhibition of the binding of a ligand specific for each target)
T4 construct: purchased Eurofins Cerep (SafetyScreen44), recognised from the panel format
T4 sequence (P32238 1-428): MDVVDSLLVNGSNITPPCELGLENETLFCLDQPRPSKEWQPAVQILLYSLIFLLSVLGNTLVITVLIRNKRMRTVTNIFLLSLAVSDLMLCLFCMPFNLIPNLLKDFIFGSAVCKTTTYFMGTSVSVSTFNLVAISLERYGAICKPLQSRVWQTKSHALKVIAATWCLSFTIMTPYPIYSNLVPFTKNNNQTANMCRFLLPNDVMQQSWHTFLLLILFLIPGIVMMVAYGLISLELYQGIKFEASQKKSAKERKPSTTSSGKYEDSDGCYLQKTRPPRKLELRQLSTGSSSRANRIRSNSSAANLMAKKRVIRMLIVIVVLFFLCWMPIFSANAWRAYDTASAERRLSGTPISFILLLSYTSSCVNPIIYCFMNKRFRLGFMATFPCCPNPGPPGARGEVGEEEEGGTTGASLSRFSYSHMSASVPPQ
Excerpt: as §1

human CHRM2 (M2) = target: T5, human CHRM2 (M2) (Homo sapiens, UniProt P08172); assay: Eurofins CEREP panel, M2; type: binding; details: for inhibition at 10 µM / perc_inhibition (% inhibition of the binding of a ligand specific for each target): M2 (h) (antagonist radioligand), test compound concentration 10 uM; for inhibition at 10 µM: read-out: perc_inhibition (% inhibition of the binding of a ligand specific for each target)
T5 construct: purchased Eurofins Cerep (SafetyScreen44), recognised from the panel format
T5 sequence (P08172 1-466): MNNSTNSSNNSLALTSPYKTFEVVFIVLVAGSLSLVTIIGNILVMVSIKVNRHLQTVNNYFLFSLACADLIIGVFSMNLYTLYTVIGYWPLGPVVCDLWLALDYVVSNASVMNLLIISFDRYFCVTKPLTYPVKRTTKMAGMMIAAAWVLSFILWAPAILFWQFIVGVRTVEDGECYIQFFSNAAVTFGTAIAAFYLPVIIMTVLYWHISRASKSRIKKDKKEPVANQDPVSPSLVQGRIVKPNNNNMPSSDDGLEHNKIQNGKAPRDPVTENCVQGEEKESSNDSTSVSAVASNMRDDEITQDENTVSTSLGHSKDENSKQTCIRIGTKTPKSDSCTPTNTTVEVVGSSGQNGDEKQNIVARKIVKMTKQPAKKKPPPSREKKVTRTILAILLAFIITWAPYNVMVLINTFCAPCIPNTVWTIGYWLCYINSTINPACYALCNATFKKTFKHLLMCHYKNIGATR

[1] = In vitro mouse hepatocyte stability; type: in vitro ADME
Excerpt: Supplement media-1.zip/Hepatocyte_Stability.csv, table | column: clint; t_half

D2S (h) = target: T6, D2S (h) (Homo sapiens, UniProt P14416); assay: In vitro CEREP profiling, D2S (h) (agonist radioligand); type: binding; details: test compound 10 uM; for inhibition at 10 µM: read-out: perc_inhibition (% inhibition of the binding of a ligand specific for each target)
T6 construct: purchased Eurofins Cerep (SafetyScreen44), recognised from the panel format
T6 sequence (P14416 1-414 isoform P14416-2): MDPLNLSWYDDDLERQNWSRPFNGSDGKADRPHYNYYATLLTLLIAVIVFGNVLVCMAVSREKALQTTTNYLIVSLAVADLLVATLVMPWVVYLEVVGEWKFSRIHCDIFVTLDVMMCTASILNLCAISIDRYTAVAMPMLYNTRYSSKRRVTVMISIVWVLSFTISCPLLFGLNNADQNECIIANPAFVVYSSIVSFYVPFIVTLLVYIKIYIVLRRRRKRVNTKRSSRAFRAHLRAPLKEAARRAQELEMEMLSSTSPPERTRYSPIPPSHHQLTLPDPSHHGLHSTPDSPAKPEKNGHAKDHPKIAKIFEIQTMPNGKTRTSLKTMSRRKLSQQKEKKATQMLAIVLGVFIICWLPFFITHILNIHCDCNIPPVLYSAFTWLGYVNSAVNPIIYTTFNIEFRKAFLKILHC
Excerpt: as §1

5-HT2A (h) = target: T7, 5-HT2A (h) (Homo sapiens, UniProt P28223); assay: In vitro CEREP profiling, 5-HT2A (h) (agonist radioligand); type: binding; details: test compound concentration 10 uM; for inhibition at 10 µM: read-out: perc_inhibition, % inhibition of the binding of a ligand specific for each target
T7 construct: purchased Eurofins Cerep (SafetyScreen44), recognised from the panel format
T7 sequence (P28223 whole entry): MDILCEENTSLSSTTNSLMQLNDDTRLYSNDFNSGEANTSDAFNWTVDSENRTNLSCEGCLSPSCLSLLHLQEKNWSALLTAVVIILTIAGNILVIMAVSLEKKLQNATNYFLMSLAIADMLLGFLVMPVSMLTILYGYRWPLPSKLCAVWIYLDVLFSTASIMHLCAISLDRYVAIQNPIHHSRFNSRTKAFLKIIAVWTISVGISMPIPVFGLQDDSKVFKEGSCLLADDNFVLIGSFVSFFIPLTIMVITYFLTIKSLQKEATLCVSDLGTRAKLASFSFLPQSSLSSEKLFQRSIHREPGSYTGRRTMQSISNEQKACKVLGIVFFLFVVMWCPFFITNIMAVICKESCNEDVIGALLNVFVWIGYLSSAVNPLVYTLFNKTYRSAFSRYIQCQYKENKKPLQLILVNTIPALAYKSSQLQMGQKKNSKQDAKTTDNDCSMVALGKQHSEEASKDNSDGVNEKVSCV
Excerpt: as §1

alpha1A (h) = target: T8, alpha1A (h) (Homo sapiens, UniProt P35348); assay: In vitro CEREP profiling, alpha1A (h) (antagonist radioligand); type: binding; details: test compound 10 uM; for inhibition at 10 µM: read-out: perc_inhibition (% inhibition of the binding of a ligand specific for each target)
T8 construct: purchased Eurofins Cerep (SafetyScreen44), recognised from the panel format
T8 sequence (P35348 1-466): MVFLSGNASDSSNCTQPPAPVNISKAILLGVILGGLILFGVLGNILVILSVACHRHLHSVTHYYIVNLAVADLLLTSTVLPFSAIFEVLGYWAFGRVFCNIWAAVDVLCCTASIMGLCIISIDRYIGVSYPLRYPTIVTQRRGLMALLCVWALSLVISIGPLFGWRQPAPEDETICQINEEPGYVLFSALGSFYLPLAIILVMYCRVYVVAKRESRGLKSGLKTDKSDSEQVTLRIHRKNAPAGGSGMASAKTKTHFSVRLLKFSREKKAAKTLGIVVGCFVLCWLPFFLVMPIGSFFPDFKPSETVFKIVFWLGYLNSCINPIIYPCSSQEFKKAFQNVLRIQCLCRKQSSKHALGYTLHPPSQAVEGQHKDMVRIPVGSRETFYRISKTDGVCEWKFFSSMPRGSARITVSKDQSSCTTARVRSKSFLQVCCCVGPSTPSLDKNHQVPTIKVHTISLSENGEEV
Excerpt: as §1

[2] = target: T9, Potassium Channel hERG (human) (Homo sapiens, UniProt Q12809); assay: In vitro CEREP profiling, Potassium Channel hERG (human)- [3H] Dofetilide; type: binding; details: test compound concentration 10 uM
T9 construct: purchased Eurofins Cerep (SafetyScreen44), recognised from the panel format
T9 sequence (Q12809 whole entry): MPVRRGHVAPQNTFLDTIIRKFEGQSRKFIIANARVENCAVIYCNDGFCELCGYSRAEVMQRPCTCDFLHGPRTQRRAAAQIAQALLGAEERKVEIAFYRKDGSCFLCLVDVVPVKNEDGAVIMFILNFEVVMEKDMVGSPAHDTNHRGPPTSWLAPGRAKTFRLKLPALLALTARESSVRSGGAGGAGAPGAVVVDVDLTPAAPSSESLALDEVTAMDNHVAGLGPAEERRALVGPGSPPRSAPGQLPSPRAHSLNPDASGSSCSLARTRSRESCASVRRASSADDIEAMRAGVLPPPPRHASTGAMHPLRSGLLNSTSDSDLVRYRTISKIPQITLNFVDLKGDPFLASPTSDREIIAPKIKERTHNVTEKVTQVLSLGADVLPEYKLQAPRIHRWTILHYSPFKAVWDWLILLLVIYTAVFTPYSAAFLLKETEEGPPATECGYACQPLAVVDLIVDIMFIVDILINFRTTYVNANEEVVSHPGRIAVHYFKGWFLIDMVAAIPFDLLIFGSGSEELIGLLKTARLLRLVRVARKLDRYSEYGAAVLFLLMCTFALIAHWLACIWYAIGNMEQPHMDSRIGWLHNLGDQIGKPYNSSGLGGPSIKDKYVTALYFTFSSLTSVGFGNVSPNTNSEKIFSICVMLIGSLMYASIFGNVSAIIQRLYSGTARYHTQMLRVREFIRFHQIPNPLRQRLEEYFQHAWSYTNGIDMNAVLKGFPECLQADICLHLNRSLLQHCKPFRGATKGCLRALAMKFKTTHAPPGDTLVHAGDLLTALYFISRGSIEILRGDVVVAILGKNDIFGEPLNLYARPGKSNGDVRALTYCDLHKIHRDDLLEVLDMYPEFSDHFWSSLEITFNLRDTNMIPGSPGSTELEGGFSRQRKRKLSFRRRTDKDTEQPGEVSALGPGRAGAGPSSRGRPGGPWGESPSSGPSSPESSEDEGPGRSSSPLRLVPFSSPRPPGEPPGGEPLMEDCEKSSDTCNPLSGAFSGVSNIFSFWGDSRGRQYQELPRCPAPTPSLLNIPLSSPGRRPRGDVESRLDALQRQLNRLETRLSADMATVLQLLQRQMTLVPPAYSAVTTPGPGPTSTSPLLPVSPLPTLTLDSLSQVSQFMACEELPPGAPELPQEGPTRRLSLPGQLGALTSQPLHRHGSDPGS
Excerpt: as §1

[3] = protocol HeLa-ACE2 cytotoxicity

| SMILES | cc10 (HeLa-ACE2 cells; [3]) [µM] | perc_max_measured (HeLa-ACE2 cells; [3]) | perc_min_measured (HeLa-ACE2 cells; [3]) | CC50 (HeLa-ACE2 cells; [3]) [µM] | potency (CYP; isoform 1A2) | potency (CYP; isoform 2C9) | potency (CYP; isoform 2C19) | potency (CYP; isoform 2D6) | potency (CYP; isoform 3A4) | inhibition at 10 µM (V1a (h)) [%] | inhibition at 10 µM (5-HT3 (h)) [%] | perc_inhibition: % inhibition of the binding of a ligand specific for each target, 5-HT transporter (h) (antagonist radioligand) (5-HT transporter (h)) [%] | inhibition at 10 µM (CCK1 (CCKA) (h)) [%] | inhibition at 10 µM (human CHRM2 (M2)) [%] | cc10 (HeLa-ACE2 cells; HeLa-ACE2 cytotoxicity) [µM] | perc_max_measured (HeLa-ACE2 cells; HeLa-ACE2 cytotoxicity) | perc_min_measured (HeLa-ACE2 cells; HeLa-ACE2 cytotoxicity) | clint [1] [uL/min/1E6 cells] | t_half [1] | inhibition at 10 µM (D2S (h)) [%] | other results |
| --- | --- | --- | --- | --- | --- | --- | --- | --- | --- | --- | --- | --- | --- | --- | --- | --- | --- | --- | --- | --- | --- |
| CC(C)C(Nc1ncnc2[nH]ccc12)c1ccc2c(c1)S(=O)(=O)CCC2 (stereo not shown) [ASAP-0008327] | > 50.0 | 104.85% | 98.585% | – | – | – | – | – | – | – | – | – | – | – | – | – | – | – | – | – | – |
| CC(C)[C@@H](Nc1ncnc2[nH]c(-c3cnn(C)c3C#N)cc12)c1ccc2c(n1)OCCO2 [ASAP-0008418] | > 50.0 | 131.128% and 106.847% | 59.813% and 94.114% | > 50 | – | – | – | – | – | – | – | – | – | – | – | – | – | – | – | – | – |
| CC(C)C(Nc1ncnc2[nH]c(C(=O)NC3CCN(C)C3)cc12)c1ccc2c(c1)S(=O)(=O)CCC2 (stereo not shown) [ASAP-0011198] | > 20.0 | 87.174% | 78.327% | > 20 | weak | weak | weak | weak | weak | 6 | 2 | 1 | 7 | 52 | > 20.0 | 148.177% | 90.706% | 61.0 | 10.1 min and 11.4 min | -7 | off-target activity at human CHRM2, in words (human CHRM2 (M2); CEREP panel): moderate; hepatocyte CLint ([1]; mouse, hepatocytes): 68.4 µL/min/1e6 cells; inhibition at 10 µM (5-HT2A (h)): 1%; inhibition at 10 µM (alpha1A (h)): 38% |
| Cc1nn(C)cc1-c1cc2c(NC(c3ccc4c(c3)S(=O)(=O)CCC4)C(C)C)ncnc2[nH]1 (stereo not shown) [ASAP-0011446] | > 20.0 | 92.951% | 82.728% | > 20 | – | – | – | – | – | 14 | 6 | -4 | -8 | 5 | > 20.0 | 134.035% | 80.92% | – | – | -16 | inhibition at 10 µM (5-HT2A (h)): 51%; inhibition at 10 µM (alpha1A (h)): 8% |
| C[C@H](C(=O)O)[C@@H](NC(=O)c1ncnc2[nH]ccc12)c1ccc(Br)cc1 [ASAP-0014722] | – | – | – | – | weak | moderate | weak | weak | weak | – | – | – | – | – | > 20.0 | 102.029% and 107.127% | 80.657% and 84.357% | 4.35 | 159.0 min | – | IC50 (CYP; isoform 1A2): > 50 µM; IC50 (CYP; isoform 2C9): 5.14 µM; IC50 (CYP; isoform 2C19): > 50 µM; IC50 (CYP; isoform 2D6): > 50 µM; IC50 (CYP; isoform 3A4): > 50 µM; perc_inhibition (% inhibition of the binding of a ligand specific for each target) (V1a (h)): 62%; perc_inhibition (% inhibition of the binding of a ligand specific for each target) (5-HT3 (h)): 2%; perc_inhibition (% inhibition of the binding of a ligand specific for each target) (CCK1 (CCKA) (h)): 6%; perc_inhibition (% inhibition of the binding of a ligand specific for each target) (human CHRM2 (M2)): -4%; CC50 (HeLa-ACE2 cells; HeLa-ACE2 cytotoxicity): > 20 µM; perc_inhibition (% inhibition of the binding of a ligand specific for each target) (D2S (h)): -1%; perc_inhibition (% inhibition of the binding of a ligand specific for each target) [2]: 14%; perc_inhibition (% inhibition of the binding of a ligand specific for each target) (5-HT2A (h)): 1%; perc_inhibition (% inhibition of the binding of a ligand specific for each target) (alpha1A (h)): -8% |
| COc1ccc([C@H](Cc2nnn[nH]2)NC(=O)c2ncnc3[nH]ccc23)cc1 [ASAP-0015381] | – | – | – | – | weak | weak | weak | weak | weak | – | – | – | – | – | > 20.0 | 115.218% and 123.48% | 79.698% and 90.022% | 4.6 | 151.0 min | – | IC50 (CYP; isoform 1A2): > 50 µM; IC50 (CYP; isoform 2C9): 31.2 µM; IC50 (CYP; isoform 2C19): > 50 µM; IC50 (CYP; isoform 2D6): > 50 µM; IC50 (CYP; isoform 3A4): 25.4 µM; perc_inhibition (% inhibition of the binding of a ligand specific for each target) (V1a (h)): 5%; perc_inhibition (% inhibition of the binding of a ligand specific for each target) (5-HT3 (h)): 6%; perc_inhibition (% inhibition of the binding of a ligand specific for each target) (CCK1 (CCKA) (h)): -5%; perc_inhibition (% inhibition of the binding of a ligand specific for each target) (human CHRM2 (M2)): -12%; CC50 (HeLa-ACE2 cells; HeLa-ACE2 cytotoxicity): > 20 µM; perc_inhibition (% inhibition of the binding of a ligand specific for each target) (D2S (h)): -4%; perc_inhibition (% inhibition of the binding of a ligand specific for each target) [2]: 5%; perc_inhibition (% inhibition of the binding of a ligand specific for each target) (5-HT2A (h)): -4%; perc_inhibition (% inhibition of the binding of a ligand specific for each target) (alpha1A (h)): -7% |
